Source: ChEMBL document CHEMBL4831553, “Heterocyclic Compounds as Dihydroorotate Dehydrogenase Inhibitors for Treating Acute Myelogenous Leukemia (AML)” (ACS Med Chem Lett, 2021)

Key:
MOLM-13 = test: Antiproliferative activity against human MOLM-13 assessed as reduction in cell viability incubated for 72 hrs by Cell titer-Glo assay; type: functional, cell-based; details: MOLM-13, 72 h
[1] = molecular target: Dihydroorotate dehydrogenase (quinone), mitochondrial (Homo sapiens, UniProt Q02127); test: Inhibition of human DHODH using dihydroorotate as substrate and CoQ6 as co-substrate by DCIP dye based spectrophotometry analysis
Chain of Dihydroorotate dehydrogenase (quinone), mitochondrial (Q02127 whole entry): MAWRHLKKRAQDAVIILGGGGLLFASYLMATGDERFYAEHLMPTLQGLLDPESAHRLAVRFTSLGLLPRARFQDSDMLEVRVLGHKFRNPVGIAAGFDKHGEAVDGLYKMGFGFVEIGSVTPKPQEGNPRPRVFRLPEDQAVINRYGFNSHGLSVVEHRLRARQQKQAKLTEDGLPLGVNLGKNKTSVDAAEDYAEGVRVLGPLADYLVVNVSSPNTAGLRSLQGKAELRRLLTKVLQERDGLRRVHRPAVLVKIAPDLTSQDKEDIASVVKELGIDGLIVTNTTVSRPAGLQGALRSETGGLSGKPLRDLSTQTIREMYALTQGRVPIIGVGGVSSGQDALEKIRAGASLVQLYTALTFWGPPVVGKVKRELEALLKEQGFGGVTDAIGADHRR

Row | Compound | IC50 (MOLM-13) | IC50 [1]
1 | CCn1c(CO)nn(-c2nc(O[C@@H](C)C(F)(F)F)c3c(Nc4c(F)cccc4Cl)nncc3c2F)c1=O | 0.46 nM | 0.38 nM
2 | CCn1c(CO)nn(-c2cc(O[C@@H](C)C(F)(F)F)c3c(Oc4c(F)ccc(OC)c4Cl)nccc3c2)c1=O | 0.3 nM | 0.3 nM
3 | CCn1c(CO)nn(-c2nc(O[C@@H](C)C(F)(F)F)c3c(Oc4c(F)cccc4Cl)nncc3c2F)c1=O | 0.2 nM | 0.2 nM
4 | CCn1c(CO)nn(-c2cc(O[C@@H](C)C(F)(F)F)c3c(Oc4c(F)ccc(OCCOC)c4Cl)nccc3c2)c1=O | 0.3 nM | 0.41 nM
5 | CCn1c(CO)nn(-c2nc(OC(C)C(F)(F)F)c3c(Oc4c(F)cccc4Cl)nccc3c2F)c1=O (configuration not stated) | 0.4 nM | 0.59 nM
6 | CCn1c(CO)nn(-c2cc(O[C@@H](C)C(F)(F)F)c3c(Oc4c(F)ccc(N(C)C)c4Cl)nccc3c2)c1=O | 0.3 nM | 0.4 nM
